Results taken from ChEMBL document CHEMBL1201862, “PubChem BioAssay data set” (2004).
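Cultured in 96-well plates, cells were exposed to test compound for 48 hours across five concentrations. GI50: concentration for 50% inhibition of growth.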 The source made the active and inactive calls. Rule as the data show it: active = GI50 up to about 1.1 µM and inactive = higher.

Columns and labels:
Test in all cases: inhibition of tumour cell growth, NCI panel, 48 h
[1] = tested on: SF-268
[2] = tested on: ACHN
[3] = tested on: MOLT-4
[4] = tested on: SR
[5] = tested on: SF-295
[6] = tested on: DU-145
[7] = tested on: SK-OV-3
[8] = tested on: RXF 393
[9] = tested on: OVCAR-4
[10] = tested on: SK-MEL-5
[11] = tested on: NCI-H23
[12] = tested on: Hs-578T
[13] = tested on: MDA-MB-231
[14] = tested on: HT-29
[15] = tested on: U-251
[16] = tested on: MCF7
[17] = tested on: SW-620
[18] = tested on: LOX IMVI
[19] = tested on: NCI-H226
[20] = tested on: HOP-62
[21] = tested on: T47D
[22] = tested on: HCT-15
[23] = tested on: SNB-75
[24] = tested on: CCRF-CEM
[25] = tested on: UACC-257
[26] = tested on: NCI/ADR-RES
[27] = tested on: K562
[28] = tested on: HL-60
[29] = tested on: EKVX
[30] = tested on: TK-10
[31] = tested on: RPMI-8226
[32] = tested on: BT-549
[33] = tested on: OVCAR-5
[34] = tested on: SNB-19
[35] = tested on: OVCAR-8
[36] = tested on: PC-3
[37] = tested on: HOP-92
[38] = tested on: M14
[39] = tested on: KM12
[40] = tested on: A549
[41] = tested on: A498
[42] = tested on: SN12C
[43] = tested on: NCI-H460
[44] = tested on: COLO 205
[45] = tested on: HCT-116
[46] = tested on: CAKI-1
[47] = tested on: HCC 2998
[48] = tested on: 786-0
[49] = tested on: SF-539
[50] = tested on: SK-MEL-28
[51] = tested on: Malme-3M
[52] = tested on: MDA-MB-435
[53] = tested on: MDA-N
[54] = tested on: UO-31
[55] = tested on: UACC-62
[56] = tested on: IGROV-1
[57] = tested on: OVCAR-3
[58] = tested on: SK-MEL-2
[59] = tested on: NCI-H522

Measured: GI50

CC(=O)CC(=O)N1CCOC1=O
inactive: [1] > 10 µM | [2] > 10 µM | [3] > 10 µM | [4] > 10 µM | [5] > 10 µM | [6] > 10 µM | [7] > 10 µM | [8] > 10 µM | [9] > 10 µM | [10] > 10 µM | [11] > 10 µM | [12] > 10 µM | [13] > 10 µM | [14] > 10 µM | [15] > 10 µM | [16] > 10 µM | [17] > 10 µM | [18] > 10 µM | [19] > 10 µM | [20] > 10 µM | [21] > 10 µM | [23] 5.26 µM | [24] > 10 µM | [25] > 10 µM | [26] > 10 µM | [27] > 10 µM | [28] > 10 µM | [29] > 10 µM | [30] > 10 µM | [31] > 10 µM | [32] > 10 µM | [33] > 10 µM | [34] > 10 µM | [35] > 10 µM | [36] > 10 µM | [37] > 10 µM | [38] > 10 µM | [39] > 10 µM | [40] > 10 µM | [41] > 10 µM | [42] > 10 µM | [43] > 10 µM | [44] > 10 µM | [45] > 10 µM | [46] > 10 µM | [47] > 10 µM | [48] > 10 µM | [49] > 10 µM | [50] > 10 µM | [51] > 10 µM | [52] > 10 µM | [53] > 10 µM | [54] > 10 µM | [55] > 10 µM | [56] > 10 µM | [57] > 10 µM | [58] > 10 µM
> 10 µM: [22]

Clc1ccccc1-c1nc(-c2ccncc2)no1 [PIFEXOLE]
inactive: [1] 59.6 µM | [2] 88.1 µM | [3] 26.8 µM | [4] 18.5 µM | [5] 36.5 µM | [6] 87.9 µM | [7] > 100 µM | [8] 29.3 µM | [9] 59.8 µM | [10] 22.9 µM | [11] 49.4 µM | [12] 36.6 µM | [13] 94.4 µM | [14] 66.1 µM | [15] 65.8 µM | [16] 30 µM | [17] 52.7 µM | [19] 98.9 µM | [20] > 100 µM | [21] 29.2 µM | [23] 89.3 µM | [25] 37.8 µM | [26] 30.9 µM | [27] 26.6 µM | [28] 13.4 µM | [29] 16.1 µM | [30] 42.8 µM | [31] 44.2 µM | [32] 42.3 µM | [33] > 100 µM | [34] 96.2 µM | [35] 90.6 µM | [36] 78 µM | [37] > 100 µM | [38] 62.2 µM | [39] > 100 µM | [40] 69 µM | [41] 37.6 µM | [42] 38.2 µM | [43] 58.7 µM | [59] 25.8 µM | [44] 40.8 µM | [45] 43.4 µM | [46] 57.3 µM | [47] 25.1 µM | [48] > 100 µM | [49] > 100 µM | [50] > 100 µM | [51] 75.3 µM | [52] 48.6 µM | [53] 49.3 µM | [54] 47.4 µM | [55] 73.6 µM | [56] 71.3 µM | [57] 44.9 µM | [58] > 100 µM
44.7 µM: [22]
